Laboratory results from patent publication US9649313B2, “Use of ITK inhibitors for the treatment of cancer” (The University of North Carolina at Chapel Hill, priority 2012, dated 2017).

Molecular target: T1, MST1 (Homo sapiens, UniProt Q13043)
T1 construct: purchased Carna Biosciences
T1 sequence (Q13043 1-487): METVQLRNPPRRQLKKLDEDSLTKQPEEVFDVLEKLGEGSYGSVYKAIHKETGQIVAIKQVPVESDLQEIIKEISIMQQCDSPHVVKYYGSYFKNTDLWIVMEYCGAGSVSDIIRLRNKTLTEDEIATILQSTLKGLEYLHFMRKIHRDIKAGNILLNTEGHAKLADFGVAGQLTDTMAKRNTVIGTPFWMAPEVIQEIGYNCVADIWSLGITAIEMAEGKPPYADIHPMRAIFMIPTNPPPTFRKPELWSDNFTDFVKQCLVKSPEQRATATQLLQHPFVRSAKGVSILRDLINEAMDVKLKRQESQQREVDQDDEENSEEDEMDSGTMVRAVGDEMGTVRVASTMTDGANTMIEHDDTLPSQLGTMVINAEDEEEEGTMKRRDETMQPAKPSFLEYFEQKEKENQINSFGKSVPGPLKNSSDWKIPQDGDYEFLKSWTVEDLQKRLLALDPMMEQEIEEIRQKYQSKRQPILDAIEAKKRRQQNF
Experiment: cell-free kinase assay
Assay type: biochemical
Description: We investigated the potency and selectivity of BI 10N against 56 kinases using a cell-free assay (Table 8A).
The selectivity of this inhibitor was investigated by testing the potency of the inhibitor at two concentrations with 53 kinases by Carna Biosciences (MA) (Table 2).

For `C[C@]12O[C@H](C[C@]1(O)C(=O)O)n1c3ccccc3c3c4c(c5c6ccccc6n2c5c31)CNC4=O` [K252b], the IC50 (ATP concentration at approximately the Km for ATP) was 3.43 nM and the IC50 (Table 2, by Carna Biosciences) was 3.43 nM.
